pIC50: −log10 of the molar value. The source made the active and inactive calls. The calls are words filed in the database; no cut-off is given here.

Here are results for 25 compounds from ChEMBL document CHEMBL3045909, “Synthesis and antitumor studies of novel benzopyrano-1,2,3-selenadiazole and spiro[benzopyrano]-1,3,4-thiadiazoline derivatives” (Med Chem Res, 2013).

For one data set, the system named is WI-38. Nature of the data set: Cytotoxicity against Homo sapiens (human) WI38 cells assessed as inhibition of cell survival after 96 hr. In kind it is functional, cell-based. As to conditions: WI-38, 96 h.
A further data set relates to MCF7. In words: Cytotoxicity against Homo sapiens (human) MCF7 cells assessed as inhibition of cell survival after 96 hr. The note with it: MCF7, 96 h. In kind it is functional, cell-based.
For the next data set, the system named is HepG2. Nature of the data set: Cytotoxicity against Homo sapiens (human) HepG2 cells assessed as inhibition of cell survival after 96 hr. The note with it: HepG2, 96 h. In kind it is functional, cell-based.
Another data set relates to Vero. In words: Cytotoxicity against Chlorocebus aethiops (African green monkey) Vero cells assessed as inhibition of cell survival after 96 hr. In kind it is functional, cell-based. As to conditions: Chlorocebus sabaeus.
In data set [1] the test system is Mus musculus. In words: Neurotoxicity in Ehrlich ascites carcinoma xenografted Swiss albino Mus musculus (mouse) assessed as effect on tremor, twitch, jumping, drowsy at >500 mg/kg, ip qd for 9 days administered at 24 hr after tumour cell inoculation. In kind it is toxicity, organism-based. The note with it: in vivo.
The test system of data set [2] is Ehrlich. In words: Antitumor activity against Ehrlich ascites carcinoma cells xenografted in Swiss albino Mus musculus (mouse) assessed as decrease in tumour size at 50 mg/kg, ip qd for 9 days administered at 24 hr after tumour cell inoculation. In kind it is functional, organism-based. Also noted: dose 50 mg/kg.
Data set [3] in a line: Acute toxicity in ip dosed Ehrlich ascites carcinoma xenografted Swiss albino Mus musculus (mouse) assessed as mortality administered once a day for 9 days at 24 hr after tumour cell inoculation. In kind it is organism-based. The note with it: in vivo.
Data set [4] has as its system Ehrlich. Nature of the data set: Antitumor activity against Ehrlich ascites carcinoma cells xenografted in Swiss albino Mus musculus (mouse) assessed as decrease in abdominal ascites at 20 mg/kg, ip qd for 9 days administered at 24 hr after tumour cell inoculation. In kind it is functional, organism-based. Also noted: dose 20 mg/kg.
Data set [5] relates to Ehrlich. In words: Antitumor activity against Ehrlich ascites carcinoma cells xenografted in Swiss albino Mus musculus (mouse) assessed as decrease in abdominal ascites at 50 mg/kg, ip qd for 9 days administered at 24 hr after tumour cell inoculation. In kind it is functional, organism-based. Also on record: dose 50 mg/kg.
Data set [6] deals with Mus musculus. Nature of the data set: Increase in hemoglobin content in Ehrlich ascites carcinoma xenografted Swiss albino Mus musculus (mouse) blood at 20 mg/kg, ip qd for 9 days administered at 24 hr after tumour cell inoculation measured on day 14 post-tumor cell implantation (reference value: 8.70 g/dl). The note with it: route intraperitoneal. In kind it is functional.

Data set [7] in a line: Antitumor activity against Ehrlich ascites carcinoma cells xenografted in Swiss albino Mus musculus (mouse) assessed as carcinoma cell viability at 20 mg/kg, ip qd for 5 days administered at 24 hr after tumour cell inoculation by trypan blue assay (reference value: 220x10^6/ml). In kind it is functional. As to conditions: route intraperitoneal.
In data set [8] the test system is Mus musculus. In words: Increase in hematocrit content in Ehrlich ascites carcinoma xenografted Swiss albino Mus musculus (mouse) blood at 20 mg/kg, ip qd for 9 days administered at 24 hr after tumour cell inoculation measured on day 14 post-tumor cell implantation (reference value: 35.50%). In kind it is functional. As to conditions: route intraperitoneal.
Data set [9] relates to Ehrlich. In words: Antitumor activity against Ehrlich ascites carcinoma cells xenografted in Swiss albino Mus musculus (mouse) assessed as decrease in tumour size at 20 mg/kg, ip qd for 9 days administered at 24 hr after tumour cell inoculation. In kind it is functional, organism-based. Also noted: dose 20 mg/kg.
Data set [10] relates to Mus musculus. Nature of the data set: Acute toxicity in Ehrlich ascites carcinoma xenografted Swiss albino Mus musculus (mouse) assessed as decrease in locomotor activity at >500 mg/kg, ip qd for 9 days administered at 24 hr after tumour cell inoculation. In kind it is organism-based. The note with it: in vivo.
The nature of data set [11]: Antitumor activity against Ehrlich ascites carcinoma cells xenografted in Swiss albino Mus musculus (mouse) assessed as increase in lifespan at 20 mg/kg, ip qd for 9 days administered at 24 hr after tumour cell inoculation. The note with it: route intraperitoneal. In kind it is functional.
Data set [12] is described as follows: Antitumor activity against Ehrlich ascites carcinoma cells xenografted in Swiss albino Mus musculus (mouse) assessed as mean survival time at 20 mg/kg, ip qd for 9 days administered at 24 hr after tumour cell inoculation (reference value: 9.10/day). The note with it: route intraperitoneal. In kind it is functional.
Data set [13] can be described thus: Antitumor activity against Ehrlich ascites carcinoma cells xenografted in Swiss albino Mus musculus (mouse) assessed as carcinoma cell viability at 50 mg/kg, ip qd for 5 days administered at 24 hr after tumour cell inoculation by trypan blue assay (reference value: 220x10^6/ml). In kind it is functional. The note with it: route intraperitoneal.
Data set [14] deals with Mus musculus. Nature of the data set: Increase in hematocrit content in Ehrlich ascites carcinoma xenografted Swiss albino Mus musculus (mouse) blood at 50 mg/kg, ip qd for 9 days administered at 24 hr after tumour cell inoculation measured on day 14 post-tumor cell implantation (reference value: 35.50%). In kind it is functional. As to conditions: route intraperitoneal.

Data set [15] in a line: Antitumor activity against Ehrlich ascites carcinoma cells xenografted in Swiss albino Mus musculus (mouse) assessed as mean survival time at 50 mg/kg, ip qd for 9 days administered at 24 hr after tumour cell inoculation (reference value: 9.10/day). In kind it is functional. As to conditions: route intraperitoneal.
Data set [16] can be described thus: Antitumor activity against Ehrlich ascites carcinoma cells xenografted in Swiss albino Mus musculus (mouse) assessed as increase in lifespan at 50 mg/kg, ip qd for 9 days administered at 24 hr after tumour cell inoculation. In kind it is functional. The note with it: route intraperitoneal.
For data set [17], the system named is Mus musculus. In words: Increase in hemoglobin content in Ehrlich ascites carcinoma xenografted Swiss albino Mus musculus (mouse) blood at 50 mg/kg, ip qd for 9 days administered at 24 hr after tumour cell inoculation measured on day 14 post-tumor cell implantation (reference value: 8.70 g/dl). In kind it is functional. As to conditions: route intraperitoneal.

As a reminder, the pIC50 is the IC50 on a negative log10 scale, so that one unit is a factor of ten. Regarding `NC(=S)N/N=C1\CC2(CCCCCC2)Oc2ccc(O)cc21`, the pIC50 with WI-38 was 2.82; in the data set with MCF7, 2.79; in the data set with HepG2 it was 2.84; with Vero it was 2.84.
On to `CC1(C)Oc2ccc(O)cc2-c2nn[se]c21`, for which the negative-log IC50 (pIC50) in the data set on WI-38 was 4.15; with MCF7, 4.22; with HepG2, 4.22; with Vero, 4.30.
On to `Oc1ccc2c(c1)-c1nn[se]c1C1(CCCC1)O2`, for which the pIC50 with WI-38 was 4.15; in the data set on MCF7, 4.22; with HepG2 it was 4.22; in the data set on Vero, 4.22.
Regarding `NC(=S)N/N=C1\CC2(CCCC2)Oc2ccc(O)cc21`, the pIC50 was 4.00 with WI-38, 4.00 with MCF7, 4.00 with HepG2 and 4.05 in the data set with Vero.
Turning to `NC(=S)N/N=C1\CC2(CCCCC2)Oc2ccc(O)cc21`, the pIC50 was 2.95 in the data set with WI-38, 2.87 in the data set on MCF7, 3.09 in the data set with HepG2 and 3.08 in the data set on Vero.
On to `Oc1ccc2c(c1)-c1nn[se]c1C1(CCCCC1)O2`, for which the negative logarithm of the IC50 (pIC50) in the data set on WI-38 was 3.96; in the data set on MCF7 it was 3.92; in the data set with HepG2 it was 4.05; in the data set on Vero it was 4.00.
Turning to `CCC1(C)CC2(SC(NC(C)=O)=NN2C(C)=O)c2cc(OC(C)=O)ccc2O1` (stereo not drawn), the negative-log IC50 (pIC50) in the data set on WI-38 is 3.08; in the data set on MCF7 it was 3.00; with HepG2, 3.21; in the data set on Vero it was 3.20.
With `CC(=O)NC1=NN(C(C)=O)C2(CC3(CCCCC3)Oc3ccc(OC(C)=O)cc32)S1` (stereo not drawn), the negative logarithm of the IC50 (pIC50) with WI-38 is 4.10; with MCF7, 4.10; in the data set on HepG2, 4.15; with Vero, 4.10.
As to `NC(=O)N/N=C1\CC2(CCCCC2)Oc2ccc(O)cc21`, the pIC50 was 3.80 in the data set on WI-38, 4.15 with MCF7, 3.82 in the data set with HepG2 and 4.10 in the data set on Vero.
The corresponding values for `Oc1ccc2c(c1)-c1nn[se]c1C1(CCCCCC1)O2` are 2.79, 2.83, 2.94 and 2.92.
As for `CC(=O)NC1=NN(C(C)=O)C2(CC3(CCCC3)Oc3ccc(OC(C)=O)cc32)S1` (stereo not drawn), the negative logarithm of the IC50 (pIC50) with WI-38 was 4.40; with MCF7, 4.30; in the data set with HepG2, 4.30; in the data set on Vero, 4.40.
As to `O=C1CC2(CCCC2)Oc2ccc(O)cc21`, the negative logarithm of the IC50 (pIC50) in the data set with WI-38 was 3.29; in the data set on MCF7, 3.19; with HepG2 it was 3.34; in the data set with Vero, 3.13.
As to `CCC1(C)CC(=O)c2cc(O)ccc2O1` (stereo not drawn), the negative logarithm of the IC50 (pIC50) in the data set with WI-38, with MCF7, with HepG2 and with Vero was 3.82 throughout.
Turning to `CCC1(C)C/C(=N\NC(N)=O)c2cc(O)ccc2O1` (stereo not drawn), the pIC50 with WI-38 is 4.15; in the data set with MCF7, 4.15; in the data set on HepG2 it was 4.22; with Vero, 4.30.
Take `CC1(C)C/C(=N\NC(N)=O)c2cc(O)ccc2O1`: the negative logarithm of the IC50 (pIC50) in the data set on WI-38 is 3.85; in the data set on MCF7, 3.82; in the data set with HepG2, 3.92; in the data set with Vero, 3.77.
Broadly, the LD50 is the dose expected to kill half of the subjects tested. In the case of `CC(=O)NC1=NN(C(C)=O)C2(CC(C)(C)Oc3ccc(OC(C)=O)cc32)S1` (stereo not drawn), the Activity result with Mus musculus [1] is “Non-toxic”; in the data set on Mus musculus [6] it was 11.9 g/dL; in [7] it was 110 ×10⁶ /ml; in the data set on Mus musculus [8], 45%; in the data set on Mus musculus [10], “Toxic”; in data set [11], 98.9%. Moreover, the inhibition entry with Ehrlich [2], with Ehrlich [4], in the data set on Ehrlich [5] and in the data set on Ehrlich [9] was “Active” throughout. In addition, the negative-log IC50 (pIC50) in the data set with WI-38, with MCF7, with HepG2 and with Vero was 4.52 throughout. Moreover, the LD50 at 9 days in data set [3] amounted to 248 mg/kg. The MST in data set [12] amounted to 18.1 days.
On to `CCC1(C)Oc2ccc(O)cc2-c2nn[se]c21` (stereo not drawn), for which the Activity entry with Mus musculus [1] is “Non-toxic”; in the data set on Mus musculus [6], 10.5 g/dL; in data set [7], 107 ×10⁶ /ml; with Mus musculus [8] it was 43.7%; with Mus musculus [10], “Toxic”; in data set [11] it was 73.63%. Besides, the inhibition entry with Ehrlich [2], in the data set with Ehrlich [4], in the data set with Ehrlich [5] and in the data set with Ehrlich [9] was “Active” throughout. Besides, the pIC50 is 4.30 with WI-38, 4.22 in the data set on MCF7, 4.30 in the data set on HepG2 and 4.22 with Vero. For the same compound, in data set [3], the LD50 at 9 days was 247 mg/kg. The MST in data set [12] is 15.8 days.
Turning to `CC1(C)C/C(=N\NC(N)=S)c2cc(O)ccc2O1`, the negative-log IC50 (pIC50) in the data set with WI-38 was 3.92; in the data set on MCF7, 3.85; in the data set with HepG2 it was 3.85; in the data set with Vero, 3.82.
For the compound `O=C1CC2(CCCCC2)Oc2ccc(O)cc21`, the pIC50 in the data set with WI-38 was 3.68; in the data set on MCF7, 4.05; in the data set on HepG2, 3.72; in the data set on Vero, 4.05.
As to `NC(=O)N/N=C1\CC2(CCCC2)Oc2ccc(O)cc21`, the pIC50 in the data set on WI-38 was 4.00; in the data set on MCF7, 3.96; in the data set on HepG2, 4.00; in the data set with Vero, 4.05.
Take `CC1(C)CC(=O)c2cc(O)ccc2O1`: the negative-log IC50 (pIC50) was 3.37 with WI-38, 3.39 with MCF7, 3.32 in the data set with HepG2 and 3.38 in the data set with Vero.
In the case of `O=c1[nH]cc(F)c(=O)[nH]1` [FLUOROURACIL], the pIC50 is 4.70 with WI-38, 4.70 in the data set with MCF7 and 4.15 in the data set on HepG2. Moreover, the Activity in [13] was found to be 123 ×10⁶ /ml; with Mus musculus [14], 42.3%; in [16], 72.53%; in the data set with Mus musculus [17] it was 10 g/dL. The MST in [15] was found to be 15.7 days.
Regarding `O=C1CC2(CCCCCC2)Oc2ccc(O)cc21`, the pIC50 was 2.84 in the data set on WI-38, 2.82 in the data set with MCF7, 2.84 with HepG2 and 2.88 with Vero.
As to `NC(=O)N/N=C1\CC2(CCCCCC2)Oc2ccc(O)cc21`, the pIC50 in the data set with WI-38, with MCF7, with HepG2 and with Vero was 2.95 in each case.
`CCC1(C)C/C(=N\NC(N)=S)c2cc(O)ccc2O1` (stereo not drawn): the pIC50 with WI-38, in the data set with MCF7, in the data set on HepG2 and in the data set on Vero was 4.22 throughout.
